{"source": "patent US20230125667A1", "about": "“NOVEL TDZD ANALOGS AS AGENTS THAT DELAY, PREVENT, OR REVERSE AGE-ASSOCIATED DISEASES AND AS ANTI-CANCER AND ANTILEUKEMIC AGENTS” (United States Government as represented by the Department …, priority 2020, published 2023)"}
{"system": "MV4-11 cell line (myelomonocytic leukemia)", "details": "MV4-11 cells, 24 h, 7AAD; Ibuprofen-TDZD analogs (Table 3)", "units": {"LD50, 7AAD (μM) 24 h": "µM"}}
{"smiles": "CCCCCn1sc(=O)n(Cc2ccc(CNC(=O)C(C)c3ccc(CC(C)C)cc3)cc2)c1=O", "note": "(stereo not shown) [BSK-235]", "LD50, 7AAD (μM) 24 h": 2.54}
{"smiles": "CC(C)Cc1ccc(C(C)C(=O)NCc2ccc(Cn3c(=O)sn(CCCCl)c3=O)cc2)cc1", "note": "(stereo not shown) [BSK-236]", "LD50, 7AAD (μM) 24 h": 1.75}
{"smiles": "CCCCn1sc(=O)n(Cc2ccc(CNC(=O)C(C)c3ccc(CC(C)C)cc3)cc2)c1=O", "note": "(stereo not shown) [BSK-238]", "LD50, 7AAD (μM) 24 h": 11.2}
{"smiles": "CC(C)Cc1ccc(C(C)C(=O)NCc2ccc(Cn3c(=O)sn(-c4ccccc4)c3=O)cc2)cc1", "note": "(stereo not shown) [BSK-239]", "LD50, 7AAD (μM) 24 h": 4.91}
{"smiles": "CC(C)Cc1ccc(C(C)C(=O)NCc2ccc(Cn3c(=O)sn(CCCI)c3=O)cc2)cc1", "note": "(stereo not shown) [BSK-260]", "LD50, 7AAD (μM) 24 h": 1.42}
{"smiles": "CC(C)Cc1ccc(C(C)C(=O)NCc2ccc(Cn3c(=O)sn(CCI)c3=O)cc2)cc1", "note": "(stereo not shown) [BSK-265]", "LD50, 7AAD (μM) 24 h": 2.71}
{"smiles": "CC(C)Cc1ccc(C(C)C(=O)NCc2ccc(Cn3c(=O)sn(-c4ccc(Cl)cc4)c3=O)cc2)cc1", "note": "(stereo not shown) [BSK-266]", "LD50, 7AAD (μM) 24 h": 10.7}
{"smiles": "CC(C)Cc1ccc(C(C)C(=O)NCc2ccc(Cn3c(=O)sn(-c4ccc(C#N)cc4)c3=O)cc2)cc1", "note": "(stereo not shown) [BSK-267]", "LD50, 7AAD (μM) 24 h": 14.8}
{"smiles": "COc1ccc(-n2sc(=O)n(Cc3ccc(CNC(=O)C(C)c4ccc(CC(C)C)cc4)cc3)c2=O)cc1", "note": "(stereo not shown) [BSK-270]", "LD50, 7AAD (μM) 24 h": 8.21}
{"smiles": "Cn1sc(=O)n(Cc2ccccc2)c1=O", "note": "[TDZD-8, 4-benzyl, 2-methyl, 1,2,4-thiadiazolidine, 3,5 dione, reference compound]", "LD50, 7AAD (μM) 24 h": 3.61}
{"system": "MV4-11 cell line (myelomonocytic leukemia)", "details": "MV4-11 cells, 24 h, 7AAD; MMB-TDZD analogs (Table 2)", "units": {"LD50, 7AAD (μM) 24 h": "µM"}}
{"smiles": "C=C1C(=O)O[C@H]2[C@H]1CC/C(COC(=O)NCc1ccc(Cn3c(=O)sn(-c4ccc(C#N)cc4)c3=O)cc1)=C\\CC[C@@]1(C)O[C@@H]21", "note": "[BSK-263]", "LD50, 7AAD (μM) 24 h": 0.23}
{"smiles": "C=C1C(=O)O[C@H]2[C@H]1CC/C(COC(=O)NCc1ccc(Cn3c(=O)sn(-c4ccc(Cl)cc4)c3=O)cc1)=C\\CC[C@@]1(C)O[C@@H]21", "note": "[BSK-268]", "LD50, 7AAD (μM) 24 h": 0.55}
{"smiles": "Cn1sc(=O)n(Cc2ccccc2)c1=O", "note": "[TDZD-8, 4-benzyl, 2-methyl, 1,2,4-thiadiazolidine, 3,5 dione, reference compound]", "LD50, 7AAD (μM) 24 h": 3.61}
{"system": "MV4-11 cell line (myelomonocytic leukemia)", "details": "MV4-11 cells, 24 h, Alamar blue; Ibuprofen-TDZD analogs (Table 3)", "units": {"LD50, Alamar blue (μM) 24 h": "µM"}}
{"smiles": "CCCCCn1sc(=O)n(Cc2ccc(CNC(=O)C(C)c3ccc(CC(C)C)cc3)cc2)c1=O", "note": "(stereo not shown) [BSK-235]", "LD50, Alamar blue (μM) 24 h": 3.50}
{"smiles": "CC(C)Cc1ccc(C(C)C(=O)NCc2ccc(Cn3c(=O)sn(CCCCl)c3=O)cc2)cc1", "note": "(stereo not shown) [BSK-236]", "LD50, Alamar blue (μM) 24 h": 2.50}
{"smiles": "CCCCn1sc(=O)n(Cc2ccc(CNC(=O)C(C)c3ccc(CC(C)C)cc3)cc2)c1=O", "note": "(stereo not shown) [BSK-238]", "LD50, Alamar blue (μM) 24 h": 10.00}
{"smiles": "CC(C)Cc1ccc(C(C)C(=O)NCc2ccc(Cn3c(=O)sn(-c4ccccc4)c3=O)cc2)cc1", "note": "(stereo not shown) [BSK-239]", "LD50, Alamar blue (μM) 24 h": 4.70}
{"smiles": "CC(C)Cc1ccc(C(C)C(=O)NCc2ccc(Cn3c(=O)sn(CCCI)c3=O)cc2)cc1", "note": "(stereo not shown) [BSK-260]", "LD50, Alamar blue (μM) 24 h": 1.49}
{"smiles": "CC(C)Cc1ccc(C(C)C(=O)NCc2ccc(Cn3c(=O)sn(CCI)c3=O)cc2)cc1", "note": "(stereo not shown) [BSK-265]", "LD50, Alamar blue (μM) 24 h": 2.50}
{"smiles": "CC(C)Cc1ccc(C(C)C(=O)NCc2ccc(Cn3c(=O)sn(-c4ccc(Cl)cc4)c3=O)cc2)cc1", "note": "(stereo not shown) [BSK-266]", "LD50, Alamar blue (μM) 24 h": 12.00}
{"smiles": "CC(C)Cc1ccc(C(C)C(=O)NCc2ccc(Cn3c(=O)sn(-c4ccc(C#N)cc4)c3=O)cc2)cc1", "note": "(stereo not shown) [BSK-267]", "LD50, Alamar blue (μM) 24 h": 12.00}
{"smiles": "COc1ccc(-n2sc(=O)n(Cc3ccc(CNC(=O)C(C)c4ccc(CC(C)C)cc4)cc3)c2=O)cc1", "note": "(stereo not shown) [BSK-270]", "LD50, Alamar blue (μM) 24 h": 9.00}
{"smiles": "Cn1sc(=O)n(Cc2ccccc2)c1=O", "note": "[TDZD-8, 4-benzyl, 2-methyl, 1,2,4-thiadiazolidine, 3,5 dione, reference compound]", "LD50, Alamar blue (μM) 24 h": 4.5}
{"system": "MV4-11 cell line (myelomonocytic leukemia)", "details": "MV4-11 cells, 24 h, Alamar blue; MMB-TDZD analogs (Table 2)", "units": {"LD50, Alamar blue (μM) 24 h": "µM"}}
{"smiles": "C=C1C(=O)O[C@H]2[C@H]1CC/C(COC(=O)NCc1ccc(Cn3c(=O)sn(-c4ccc(C#N)cc4)c3=O)cc1)=C\\CC[C@@]1(C)O[C@@H]21", "note": "[BSK-263]", "LD50, Alamar blue (μM) 24 h": 0.75}
{"smiles": "C=C1C(=O)O[C@H]2[C@H]1CC/C(COC(=O)NCc1ccc(Cn3c(=O)sn(-c4ccc(Cl)cc4)c3=O)cc1)=C\\CC[C@@]1(C)O[C@@H]21", "note": "[BSK-268]", "LD50, Alamar blue (μM) 24 h": 0.63}
{"smiles": "Cn1sc(=O)n(Cc2ccccc2)c1=O", "note": "[TDZD-8, 4-benzyl, 2-methyl, 1,2,4-thiadiazolidine, 3,5 dione, reference compound]", "LD50, Alamar blue (μM) 24 h": 4.5}
{"system": "MV4-11 cell line (myelomonocytic leukemia)", "details": "MV4-11 cells, 24 h, YOPRO; Ibuprofen-TDZD analogs (Table 3)", "units": {"LD50, YOPRO (μM) 24 h": "µM"}}
{"smiles": "CCCCCn1sc(=O)n(Cc2ccc(CNC(=O)C(C)c3ccc(CC(C)C)cc3)cc2)c1=O", "note": "(stereo not shown) [BSK-235]", "LD50, YOPRO (μM) 24 h": 3.2}
{"smiles": "CC(C)Cc1ccc(C(C)C(=O)NCc2ccc(Cn3c(=O)sn(CCCCl)c3=O)cc2)cc1", "note": "(stereo not shown) [BSK-236]", "LD50, YOPRO (μM) 24 h": 1.77}
{"smiles": "CCCCn1sc(=O)n(Cc2ccc(CNC(=O)C(C)c3ccc(CC(C)C)cc3)cc2)c1=O", "note": "(stereo not shown) [BSK-238]", "LD50, YOPRO (μM) 24 h": 10.9}
{"smiles": "CC(C)Cc1ccc(C(C)C(=O)NCc2ccc(Cn3c(=O)sn(-c4ccccc4)c3=O)cc2)cc1", "note": "(stereo not shown) [BSK-239]", "LD50, YOPRO (μM) 24 h": 4.24}
{"smiles": "CC(C)Cc1ccc(C(C)C(=O)NCc2ccc(Cn3c(=O)sn(CCCI)c3=O)cc2)cc1", "note": "(stereo not shown) [BSK-260]", "LD50, YOPRO (μM) 24 h": 1.48}
{"smiles": "CC(C)Cc1ccc(C(C)C(=O)NCc2ccc(Cn3c(=O)sn(CCI)c3=O)cc2)cc1", "note": "(stereo not shown) [BSK-265]", "LD50, YOPRO (μM) 24 h": 2.87}
{"smiles": "CC(C)Cc1ccc(C(C)C(=O)NCc2ccc(Cn3c(=O)sn(-c4ccc(Cl)cc4)c3=O)cc2)cc1", "note": "(stereo not shown) [BSK-266]", "LD50, YOPRO (μM) 24 h": 10.6}
{"smiles": "CC(C)Cc1ccc(C(C)C(=O)NCc2ccc(Cn3c(=O)sn(-c4ccc(C#N)cc4)c3=O)cc2)cc1", "note": "(stereo not shown) [BSK-267]", "LD50, YOPRO (μM) 24 h": 17.3}
{"smiles": "COc1ccc(-n2sc(=O)n(Cc3ccc(CNC(=O)C(C)c4ccc(CC(C)C)cc4)cc3)c2=O)cc1", "note": "(stereo not shown) [BSK-270]", "LD50, YOPRO (μM) 24 h": 6.14}
{"smiles": "Cn1sc(=O)n(Cc2ccccc2)c1=O", "note": "[TDZD-8, 4-benzyl, 2-methyl, 1,2,4-thiadiazolidine, 3,5 dione, reference compound]", "LD50, YOPRO (μM) 24 h": 3.29}
{"system": "MV4-11 cell line (myelomonocytic leukemia)", "details": "MV4-11 cells, 24 h, YOPRO; MMB-TDZD analogs (Table 2)", "units": {"LD50, YOPRO (μM) 24 h": "µM"}}
{"smiles": "C=C1C(=O)O[C@H]2[C@H]1CC/C(COC(=O)NCc1ccc(Cn3c(=O)sn(-c4ccc(C#N)cc4)c3=O)cc1)=C\\CC[C@@]1(C)O[C@@H]21", "note": "[BSK-263]", "LD50, YOPRO (μM) 24 h": 0.13}
{"smiles": "C=C1C(=O)O[C@H]2[C@H]1CC/C(COC(=O)NCc1ccc(Cn3c(=O)sn(-c4ccc(Cl)cc4)c3=O)cc1)=C\\CC[C@@]1(C)O[C@@H]21", "note": "[BSK-268]", "LD50, YOPRO (μM) 24 h": 0.68}
{"smiles": "Cn1sc(=O)n(Cc2ccccc2)c1=O", "note": "[TDZD-8, 4-benzyl, 2-methyl, 1,2,4-thiadiazolidine, 3,5 dione, reference compound]", "LD50, YOPRO (μM) 24 h": 3.29}
{"system": "MV4-11 cell line (myelomonocytic leukemia)", "details": "MV4-11 cells; values in text", "units": {"LD50": "nM"}}
{"smiles": "C=C1C(=O)O[C@H]2[C@H]1CC/C(COC(=O)NCc1ccc(Cn3c(=O)sn(-c4ccc(Cl)cc4)c3=O)cc1)=C\\CC[C@@]1(C)O[C@@H]21", "note": "[BSK-268]", "LD50": 130}
